Results published in US5650398A, “Drug delivery enhancement via modified saponins” (Cambridge Biotech Corporation, priority 1995, dated 1997).

What was measured:
[1] = literature values; cited from earlier work
Sprague-Dawley rats = assay: Intranasal delivery of gentamicin, serum gentamicin by fluorescence polarization immunoassay; assay type: in vivo; conditions: 5 mg/kg gentamicin, 1.32 mM enhancer
Method: Experimental Conditions: Sprague-Dawley rats (male, 205-240 g) were anesthetized by intramuscular injection of 7.5 mg/kg xylazine with 50 mg/kg ketamine. Gentamicin (40 μl) was administered intranasally at time 0. Formulations contained 5 mg/kg gentamicin, with and without 1.32 mM QH-957. Blood was withdrawn from the tail vein at various timepoints. Serum gentamicin levels were measured using a fluorescence polarization immunoassay. The assay was linear from 0.3-10.0 μg/ml, and the limit of detection was 0.3 μg/ml. A value of 0.3 μg/ml was used in plotting the timepoints with serum levels below the limit of detection. Groups of 3 animals were used. Data are presented as ±standard error of the mean.
Experimental Conditions: Sprague-Dawley rats (male, 205-240 g) were anesthetized by intramuscular injection of 7.5 mg/kg xylazine with 50 mg/kg ketamine. Gentamicin (40 μl) was administered intranasally at time 0. […] Serum gentamicin levels were measured using a fluorescence polarization immunoassay. […]
Sprague-Dawley rats (male, 205-240 g) were anesthetized by intramuscular injection of 7.5 mg/kg xylazine with 50 mg/kg ketamine. […] Serum gentamicin levels were measured using a fluorescence polarization immunoassay. […] The area under the serum gentamicin concentration curve (AUC) was calculated using the trapezoidal rule. […]

rabbits = conditions: nasal administration; cited from earlier work

| enhanced intranasal permeation of gentamicin (serum gentamicin levels) (Sprague-Dawley rats) | SMILES | concentration needed for drug delivery [1] [mM] | total absorption of β-interferon relative to intravenous administration (rabbits) [%] |
| --- | --- | --- | --- |
| did not | C[C@H](CCC(=O)NCC(=O)[O-])[C@H]1CC[C@H]2[C@@H]3[C@H](O)C[C@@H]4C[C@H](O)CC[C@]4(C)[C@H]3C[C@H](O)[C@]12C.[Na+] [sodium glycocholate] | 20.5 | 2.2 |
| did not | CC1(C)[C@@H](O[C@H]2O[C@H](C(=O)O)[C@@H](O)[C@H](O)[C@H]2O[C@@H]2O[C@H](C(=O)O)[C@@H](O)[C@H](O)[C@H]2O)CC[C@]2(C)[C@H]3C(=O)C=C4[C@@H]5C[C@@](C)(C(=O)O)CC[C@]5(C)CC[C@@]4(C)[C@]3(C)CC[C@@H]12 [glycyrrhizic acid] | 23.8 |  |
